One assay concerns Trypanosoma cruzi. The assay can be described thus: Antitrypanosomal activity against epimastigote stage of Trypanosoma cruzi CL Brener assessed as growth inhibition after 5 days by MTT assay. In kind it is functional. The settings on record: 120 h. (Tetrazolium dyes change colour on reduction, which living cells bring about.)
Assay [1] is described as follows: Selectivity index, ratio of IC50 for human skin fibroblasts to IC50 for promastigote stage of Leishmania mexicana Bel21.
A further assay deals with Pseudomonas aeruginosa. The assay can be described thus: Antibacterial activity against Pseudomonas aeruginosa ATCC 27853 assessed as growth inhibition at 2 mg/ml after 24 hrs by disc agar diffusion method. In kind it is functional. The settings on record: for zone of inhibition at 2000 µg/mL: ATCC 27853, 24 h, read-out: DIZ.
Assay [2] relates to MCF7. The assay can be described thus: Selectivity index, ratio of IC50 for human skin fibroblasts to IC50 for human MCF7 cells.
The test system of assay [3] is PC-3. The assay can be described thus: Selectivity index, ratio of IC50 for human skin fibroblasts to IC50 for human PC3 cells.
A further assay deals with Leishmania mexicana. The assay can be described thus: Antileishmanial activity against promastigote stage of Leishmania mexicana Bel21 assessed as growth inhibition after 48 hrs by MTT assay. The conditions noted are these: Bel21, 48 h. In kind it is functional, organism-based.
The subject of the next assay is Staphylococcus aureus. The assay can be described thus: Antibacterial activity against Staphylococcus aureus ATCC 25923 assessed as growth inhibition at 2 mg/ml after 24 hrs by disc agar diffusion method. The settings on record: for zone of inhibition at 2000 µg/mL: ATCC 25923, 24 h, read-out: DIZ. It counts as functional. Background: In agar diffusion tests the substance spreads into inoculated agar from a disc or well.

Another assay relates to Escherichia coli. The assay can be described thus: Antibacterial activity against Escherichia coli ATCC 35218 assessed as growth inhibition at 2 mg/ml after 24 hrs by disc agar diffusion method. The conditions noted are these: for zone of inhibition at 2000 µg/mL: ATCC 35218, 24 h, read-out: DIZ. In kind it is functional.
Assay [4] in a line: Selectivity index, ratio of IC50 for human skin fibroblasts to IC50 for epimastigote stage of Trypanosoma cruzi CL Brener.
The test system of the next assay is Bacillus cereus. The assay can be described thus: Antibacterial activity against Bacillus cereus ATCC 14579 assessed as growth inhibition at 2 mg/ml after 24 hrs by disc agar diffusion method. The conditions noted are these: for zone of inhibition at 2000 µg/mL: ATCC 14579, 24 h, read-out: DIZ. It counts as functional.
The nature of assay [5]: Cytotoxicity against human skin fibroblasts assessed as growth inhibition after 72 hrs by MTT assay. The conditions noted are these: Skin fibroblast.
Assay [6] deals with MCF7. The assay can be described thus: Cytotoxicity against human MCF7 cells assessed as growth inhibition after 72 hrs by MTT assay. It counts as functional, cell-based. The settings on record: MCF7, 72 h.
Assay [7] relates to PC-3. Description: Cytotoxicity against human PC3 cells assessed as growth inhibition after 72 hrs by MTT assay. It counts as functional, cell-based. The conditions noted are these: PC-3, 72 h.

Experimental findings from ChEMBL document CHEMBL3585240, “Synthesis and biological evaluation of caracasine acid derivatives” (Bioorg Med Chem, 2015) are described below.

The source made the active and inactive calls. The calls are words filed in the database; no cut-off is given here. Where only a bound is given, the exact number is not on record here.

On to `C=C1C(=O)[C@@]23CC[C@H](C(=C)C)[C@@](C)(CCC(=O)OC4CCCCC4)[C@@H]2CC[C@H]1C3`, for which the IC50 with Trypanosoma cruzi was 5.5 µM; in the assay on Leishmania mexicana, 1.2 µM; in assay [5] it was < 3.9 µM; in the assay with MCF7 [6], 2.1 µM; in the assay on PC-3 [7], 1.9 µM. Further, the “Ratio IC50” value in assay [1] is reported as <3.3; in the assay with MCF7 [2], 1.9; with PC-3 [3], 2.1; in assay [4], <0.7. Also, the zone of inhibition at 2000 µg/mL was 30 mm in the assay with Pseudomonas aeruginosa, 30 mm with Staphylococcus aureus, 28 mm in the assay on Escherichia coli and 12 mm in the assay on Bacillus cereus.
Turning to `C=C(C)[C@H]1CC[C@@]23C[C@H](CC[C@H]2[C@]1(C)CCC(=O)O)C(C)C3=O` (stereo partly drawn), the figures for the zone of inhibition at 2000 µg/mL in the assay on Pseudomonas aeruginosa and in the assay with Bacillus cereus were 18 mm and 20 mm, respectively. For the same molecule, in the assay with MCF7 [2], the “Ratio IC50” value is >1.4. Besides, the IC50 in the assay with Leishmania mexicana is > 47 µM; in [5], > 157 µM; with MCF7 [6], 110 µM. Moreover, the “growth inhibition (GI)” value with Staphylococcus aureus and with Escherichia coli was “inactive” in each case.
For the molecule `C=C1C(=O)[C@@]23CC[C@H](C(=C)C)[C@@](C)(CCC(=O)NC4CCCCC4)[C@@H]2CC[C@H]1C3`, the IC50 in the assay with Trypanosoma cruzi turned out to be 2.8 µM; in the assay on Leishmania mexicana it was 2 µM; in assay [5], 12 µM; with MCF7 [6], 10 µM; in the assay on PC-3 [7], 3.9 µM. Also, the “Ratio IC50” value is on record as 6 in [1], 1.2 in the assay on MCF7 [2], 3.1 in the assay on PC-3 [3] and 4.3 in assay [4]. The zone of inhibition at 2000 µg/mL was 12 mm with Pseudomonas aeruginosa, 15 mm with Staphylococcus aureus, 16 mm in the assay with Escherichia coli and 15 mm in the assay with Bacillus cereus.
Consider `C=C1C(=O)[C@@]23CC[C@H](C(=C)C)[C@@](C)(CCC(=O)OC(C)C)[C@@H]2CC[C@H]1C3`, for which the IC50 was determined as 4.1 µM in the assay with Trypanosoma cruzi; 1.5 µM in the assay on Leishmania mexicana; 7.5 µM in assay [5]; 5.4 µM in the assay on MCF7 [6]; 5.4 µM in the assay on PC-3 [7]. Further, the “Ratio IC50” value in [1] stood at 5; in the assay on MCF7 [2], 1.4; in the assay on PC-3 [3] it was 1.4; in [4], 1.8. Besides, the zone of inhibition at 2000 µg/mL in the assay on Pseudomonas aeruginosa and with Staphylococcus aureus was 15 mm each time. Moreover, the “growth inhibition (GI)” value with Escherichia coli and in the assay on Bacillus cereus was “inactive” in each case.
With `C=C1C(=O)[C@@]23CC[C@H](C4(C)CO4)[C@@](C)(CCC(=O)O)[C@@H]2CC[C@H]1C3` (stereo partly drawn), the zone of inhibition at 2000 µg/mL in the assay on Pseudomonas aeruginosa worked out at 18 mm; in the assay with Staphylococcus aureus, 25 mm; in the assay on Escherichia coli it was 18 mm; in the assay with Bacillus cereus it was 20 mm. Moreover, the “Ratio IC50” value with MCF7 [2] was found to be 1.1; with PC-3 [3], 3.9. The figures for the IC50 (in [5]; with MCF7 [6]; in the assay with PC-3 [7]) were 24.7 µM, 22.6 µM and 6.4 µM, respectively.
For the molecule `C=C(C)[C@H]1CC[C@@]23C[C@H](CC[C@H]2[C@]1(C)CCC(=O)O)C(CC#N)C3=O` (stereo partly drawn), the entries for the “Ratio IC50” value (in assay [1]; in the assay on MCF7 [2]) were <1.2 and 0.5, respectively. Also, the “growth inhibition (GI)” value in the assay on Pseudomonas aeruginosa, in the assay with Staphylococcus aureus, in the assay with Escherichia coli and in the assay on Bacillus cereus was “inactive” throughout. For the same molecule, the IC50 is > 44 µM in the assay with Leishmania mexicana, 51.9 µM in assay [5], 144 µM in the assay on MCF7 [6] and > 138 µM in the assay with PC-3 [7].
In the case of `C=C1C(=O)[C@@]23CC[C@H](C(=C)C)[C@@](C)(CCC(=O)OCc4ccccc4)[C@@H]2CC[C@H]1C3`, the IC50 in the assay with Trypanosoma cruzi amounted to 4.1 µM; in the assay with Leishmania mexicana it was 1 µM; in [5], 3.1 µM; in the assay with MCF7 [6] it was 3.7 µM; in the assay with PC-3 [7] it was 5.5 µM. Also, the “Ratio IC50” value in assay [1] is 3.1; in the assay with MCF7 [2], 0.8; in the assay on PC-3 [3] it was 0.6; in assay [4], 0.8. For the same molecule, the zone of inhibition at 2000 µg/mL in the assay with Pseudomonas aeruginosa is 15 mm; in the assay with Staphylococcus aureus, 15 mm; in the assay on Escherichia coli it was 22 mm; in the assay on Bacillus cereus it was 24 mm.
As for `C=C1C(=O)[C@@]23CC[C@H](C(C)(O)CO)[C@@](C)(CCC(=O)O)[C@@H]2CC[C@H]1C3` (stereo partly drawn), the IC50 came out at 42.6 µM with Trypanosoma cruzi; 42.8 µM in the assay on Leishmania mexicana; 25.4 µM in assay [5]; 46.3 µM with MCF7 [6]; 21.9 µM in the assay on PC-3 [7]. Further, the “Ratio IC50” value in [1] worked out at 0.6; with MCF7 [2], 0.5; in the assay on PC-3 [3], 1.2; in assay [4], 0.6. The “growth inhibition (GI)” value with Pseudomonas aeruginosa and with Staphylococcus aureus was “inactive” in each case. For the same molecule, the zone of inhibition at 2000 µg/mL is 15 mm in the assay on Escherichia coli and 20 mm with Bacillus cereus.
`C=C1C(=O)[C@@]23CC[C@H](C(=C)C)[C@@](C)(CCC(=O)O)[C@@H]2CC[C@H]1C3`: the IC50 came out at 22.3 µM with Trypanosoma cruzi; 30.8 µM with Leishmania mexicana; 39.7 µM in [5]; 15.8 µM in the assay with MCF7 [6]; 7.9 µM with PC-3 [7]. Moreover, the “Ratio IC50” value in assay [1] came out at 1.3; with MCF7 [2], 2.5; in the assay with PC-3 [3], 5; in [4] it was 1.8. Further, the zone of inhibition at 2000 µg/mL came out at 30 mm with Pseudomonas aeruginosa, 24 mm with Staphylococcus aureus, 22 mm in the assay with Escherichia coli and 22 mm with Bacillus cereus.
Regarding `C=C1C(=O)[C@@]23CC[C@H](C(=C)C)[C@@](C)(CCC(=O)OCCCC)[C@@H]2CC[C@H]1C3`, the IC50 was 4.2 µM in the assay on Trypanosoma cruzi; 1.2 µM in the assay with Leishmania mexicana; 7 µM in assay [5]; 5.6 µM in the assay with MCF7 [6]; 4.7 µM in the assay on PC-3 [7]. In addition, the “Ratio IC50” value is listed as 5.8 in assay [1], 1.3 in the assay with MCF7 [2], 1.5 in the assay with PC-3 [3] and 1.7 in assay [4]. In addition, the “growth inhibition (GI)” value with Pseudomonas aeruginosa, in the assay on Staphylococcus aureus, in the assay with Escherichia coli and with Bacillus cereus was “inactive” throughout.
Regarding `C=C1C(=O)[C@@]23CC[C@H](C(=C)C)[C@@](C)(CCC(=O)OC)[C@@H]2CC[C@H]1C3`, the IC50 came to 16.5 µM in the assay on Trypanosoma cruzi; 3.4 µM in the assay with Leishmania mexicana; 11.3 µM in [5]; 11.2 µM with MCF7 [6]; 3.6 µM with PC-3 [7]. Moreover, the “Ratio IC50” value is reported as 3.3 in [1], 1 in the assay on MCF7 [2], 3.1 in the assay with PC-3 [3] and 0.7 in [4]. In addition, the zone of inhibition at 2000 µg/mL with Pseudomonas aeruginosa came to 15 mm; in the assay on Staphylococcus aureus it was 12 mm; in the assay on Escherichia coli, 15 mm; in the assay on Bacillus cereus, 22 mm.
In the case of `C=C(C)[C@H]1CC[C@@]23C[C@H](CC[C@H]2[C@]1(C)CCC(=O)O)C(CSCc1ccccc1)C3=O` (stereo partly drawn), the IC50 with Trypanosoma cruzi worked out at 39.3 µM; with Leishmania mexicana it was 22.1 µM; in assay [5], 42.7 µM. Further, the “Ratio IC50” value in assay [1] worked out at 1.9; in assay [4] it was 1.1. Further, the zone of inhibition at 2000 µg/mL was determined as 15 mm in the assay on Pseudomonas aeruginosa, 22 mm with Staphylococcus aureus, 25 mm with Escherichia coli and 20 mm in the assay with Bacillus cereus.
Turning to `C=C1C(O)[C@@]23CC[C@H](C(=C)C)[C@@](C)(CCC(=O)O)[C@@H]2CC[C@H]1C3` (stereo partly drawn), the “Ratio IC50” value in assay [1] was <6.9; with MCF7 [2] it was 2.4; in the assay on PC-3 [3], 1.5. The zone of inhibition at 2000 µg/mL was found to be 20 mm with Pseudomonas aeruginosa, 12 mm with Staphylococcus aureus, 12 mm in the assay on Escherichia coli and 15 mm with Bacillus cereus. The IC50 in the assay with Leishmania mexicana was > 30 µM; in assay [5], 207 µM; in the assay on MCF7 [6], 86.8 µM; in the assay with PC-3 [7], 137 µM.
Take `C=C(C)[C@H]1CC[C@@]23C[C@H](CC[C@H]2[C@]1(C)CCC(=O)O)C(COCC)C3=O` (stereo partly drawn): the zone of inhibition at 2000 µg/mL with Pseudomonas aeruginosa was 15 mm; in the assay on Staphylococcus aureus, 12 mm; in the assay with Escherichia coli, 14 mm; in the assay on Bacillus cereus, 10 mm.
Turning to `C=C(C)[C@H]1CC[C@@]23C[C@H](CC[C@H]2[C@]1(C)CCC(=O)OC)C(CC(C#N)P(=O)(OCC)OCC)C3=O` (stereo partly drawn), the “growth inhibition (GI)” value in the assay with Pseudomonas aeruginosa, with Staphylococcus aureus, in the assay with Escherichia coli and with Bacillus cereus was “inactive” each time.
Turning to `C=C(C)[C@H]1CC[C@@]23C[C@H](CC[C@H]2[C@]1(C)CCC(=O)OC)C(COC)C3=O` (stereo partly drawn), the zone of inhibition at 2000 µg/mL was 15 mm in the assay with Pseudomonas aeruginosa, 13 mm with Staphylococcus aureus, 15 mm with Escherichia coli and 12 mm in the assay with Bacillus cereus.

As a reminder, the IC50 is the concentration that gives 50% inhibition.
